Source: ChEMBL document CHEMBL1158870, “Antitumor agents. 180. Chemical Studies and cytotoxic evaluation of cumingianosides and cumindysoside A, antileukemic triterpene glucosides with a 14,18-cycloapotirucallane skeleton” (1997)

Assays:
[1] = Cytotoxicity against human breast cancer cells by SRB assay; assay type: functional; details: Cancer cell lines
MDA-MB-231 = experiment: Cytotoxicity against human MDA-MB-231 cells by SRB assay; assay type: functional
IGROV-1 = experiment: Cytotoxicity against human IGROV1 cells by SRB assay; assay type: functional
Malme-3M = experiment: Cytotoxicity against human MALME-3M cells by SRB assay; assay type: functional
SR = experiment: Cytotoxicity against human SR cells by SRB assay; assay type: functional
A498 = experiment: Cytotoxicity against human A498 cells by SRB assay; assay type: functional
OVCAR-3 = experiment: Cytotoxicity against human OVCAR-3 cells by SRB assay; assay type: functional
[2] = Cytotoxicity against human Hs 578T cells by SRB assay; assay type: functional
HCT-116 = experiment: Cytotoxicity against human HCT116 cells by SRB assay; assay type: functional
CAKI-1 = experiment: Cytotoxicity against human Caki1 cells by SRB assay; assay type: functional
[3] = Cytotoxicity against human HL60(TB) cells by SRB assay; assay type: functional, HL-60(TB); details: HL-60
U-251 = experiment: Cytotoxicity against human U251 cells by SRB assay; assay type: functional
UO-31 = experiment: Cytotoxicity against human UO31 cells by SRB assay; assay type: functional
NCI-H522 = experiment: Cytotoxicity against human NCI-H522 cells by SRB assay; assay type: functional
SF-268 = experiment: Cytotoxicity against human SF268 cells by SRB assay; assay type: functional
HOP-92 = experiment: Cytotoxicity against human HOP92 cells by SRB assay; assay type: functional
OVCAR-5 = experiment: Cytotoxicity against human OVCAR5 cells by SRB assay; assay type: functional
[4] = Cytotoxicity against human CNS cancer cells by SRB assay; assay type: functional; details: Cancer cell lines
[5] = Cytotoxicity against human renal cancer cells by SRB assay; assay type: functional; details: Cancer cell lines
NSCLC = experiment: Cytotoxicity against human NSCLC cells by SRB assay; assay type: functional
MOLT-4 = experiment: Cytotoxicity against human MOLT4 cells by SRB assay; assay type: functional
SK-MEL-5 = experiment: Cytotoxicity against human SK-MEL-5 cells by SRB assay; assay type: functional
HCC 2998 = experiment: Cytotoxicity against human HCC2998 cells by SRB assay; assay type: functional
[6] = Cytotoxicity against human ovarian cancer cells by SRB assay; assay type: functional; details: Cancer cell lines
SK-OV-3 = experiment: Cytotoxicity against human SKOV3 cells by SRB assay; assay type: functional
HOP-62 = experiment: Cytotoxicity against human HOP62 cells by SRB assay; assay type: functional
OVCAR-8 = experiment: Cytotoxicity against human OVCAR8 cells by SRB assay; assay type: functional
EKVX = experiment: Cytotoxicity against human EKVX cells by SRB assay; assay type: functional
RPMI-8226 = experiment: Cytotoxicity against human RPMI8226 cells by SRB assay; assay type: functional
SW-620 = experiment: Cytotoxicity against human SW620 cells by SRB assay; assay type: functional
SF-295 = experiment: Cytotoxicity against human SF295 cells by SRB assay; assay type: functional
K562 = experiment: Cytotoxicity against human K562 cells by SRB assay; assay type: functional
NCI-H226 = experiment: Cytotoxicity against human NCI-H226 cells by SRB assay; assay type: functional
SK-MEL-28 = experiment: Cytotoxicity against human SK-MEL-28 cells by SRB assay; assay type: functional
RXF 393 = experiment: Cytotoxicity against human RXF393 cells by SRB assay; assay type: functional
CCRF-CEM = experiment: Cytotoxicity against human CCRF-CEM cells by SRB assay; assay type: functional
MDA-N = experiment: Cytotoxicity against human MDA-N cells by SRB assay; assay type: functional
[7] = Cytotoxicity against human Colon cancer cells by SRB assay; assay type: functional; details: Cancer cell lines
PC-3 = experiment: Cytotoxicity against human PC3 cells by SRB assay; assay type: functional
LOX IMVI = experiment: Cytotoxicity against human LOXIMVI cells by SRB assay; assay type: functional
NCI-H23 = experiment: Cytotoxicity against human NCI-H23 cells by SRB assay; assay type: functional
MDA-MB-435 = experiment: Cytotoxicity against human MDA-MB-435 cells by SRB assay; assay type: functional
T47D = experiment: Cytotoxicity against human T47D cells by SRB assay; assay type: functional
[8] = Cytotoxicity against human MCF7/ADR cells by SRB assay; assay type: functional; details: NCI/ADR-RES
SN12C = experiment: Cytotoxicity against human SN12C cells by SRB assay; assay type: functional
SNB-75 = experiment: Cytotoxicity against human SNB75 cells by SRB assay; assay type: functional
HT-29 = experiment: Cytotoxicity against human HT29 cells by SRB assay; assay type: functional
OVCAR-4 = experiment: Cytotoxicity against human OVCAR4 cells by SRB assay; assay type: functional
[9] = Cytotoxicity against human 786-O cells by SRB assay; assay type: functional; details: 786-0
Leukemia cell = experiment: Cytotoxicity against human Leukemia cells by SRB assay; assay type: functional
UACC-62 = experiment: Cytotoxicity against human UACC62 cells by SRB assay; assay type: functional
NCI-H322M = experiment: Cytotoxicity against human NCI-H322M cells by SRB assay; assay type: functional
DU-145 = experiment: Cytotoxicity against human DU145 cells by SRB assay; assay type: functional
ACHN = experiment: Cytotoxicity against human ACHN cells by SRB assay; assay type: functional
M14 = experiment: Cytotoxicity against human M14 cells by SRB assay; assay type: functional
BT-549 = experiment: Cytotoxicity against human BT549 cells by SRB assay; assay type: functional
HCT-15 = experiment: Cytotoxicity against human HCT15 cells by SRB assay; assay type: functional
[10] = Cytotoxicity against human melanoma cells by SRB assay; assay type: functional; details: Melanoma cell
COLO 205 = experiment: Cytotoxicity against human COLO205 cells by SRB assay; assay type: functional
SNB-19 = experiment: Cytotoxicity against human SNB19 cells by SRB assay; assay type: functional
MCF7 = experiment: Cytotoxicity against human MCF7 cells by SRB assay; assay type: functional
[11] = Cytotoxicity against human prostate cancer cells by SRB assay; assay type: functional; details: Cancer cell lines
KM12 = experiment: Cytotoxicity against human KM12 cells by SRB assay; assay type: functional
A549 = experiment: Cytotoxicity against human A549 cells by SRB assay; assay type: functional
UACC-257 = experiment: Cytotoxicity against human UACC257 cells by SRB assay; assay type: functional
SK-MEL-2 = experiment: Cytotoxicity against human SK-MEL-2 cells by SRB assay; assay type: functional
NCI-H460 = experiment: Cytotoxicity against human NCI-H460 cells by SRB assay; assay type: functional

## CC(=O)OC[C@H]1O[C@@H](O[C@@H]2C[C@H]3C(C)(C)[C@H](OC(C)=O)CC[C@]3(C)[C@H]3CCC4=C([C@@H](C)C[C@@H](O)[C@H](O)C(C)(C)O)CC[C@@]4(C)[C@@]32C)[C@H](O)[C@@H](O)[C@@H]1O
[1]
  TGI: 28.9 µM
MDA-MB-231
  GI50: 11.5 µM
IGROV-1
  GI50: 16.2 µM
Malme-3M
  GI50: 16.6 µM
SR
  GI50: 12.3 µM
A498
  GI50: 17.4 µM
OVCAR-3
  GI50: 14.5 µM
[2]
  GI50: 15.1 µM
HCT-116
  GI50: 14.1 µM
  TGI: 27.2 µM
CAKI-1
  GI50: 15.5 µM
[3]
  GI50: 12.9 µM
U-251
  GI50: 6.03 µM
UO-31
  GI50: 18.2 µM
NCI-H522
  GI50: 13.2 µM
SF-268
  GI50: 16.6 µM
HOP-92
  GI50: 14.5 µM
OVCAR-5
  GI50: 17.8 µM
[4]
  TGI: 28.2 µM
[5]
  TGI: 30.8 µM
NSCLC
  TGI: 30.3 µM
MOLT-4
  GI50: 13.2 µM
SK-MEL-5
  GI50: 16.2 µM
HCC 2998
  GI50: 12 µM
  TGI: 25.2 µM
[6]
  TGI: 30.4 µM
SK-OV-3
  GI50: 17.8 µM
HOP-62
  GI50: 16.2 µM
OVCAR-8
  GI50: 15.8 µM
EKVX
  GI50: 17 µM
RPMI-8226
  GI50: 10.5 µM
SW-620
  GI50: 17 µM
  TGI: 30.7 µM
SF-295
  GI50: 17.4 µM
K562
  GI50: 12.6 µM
NCI-H226
  GI50: 17.4 µM
SK-MEL-28
  GI50: 17 µM
RXF 393
  GI50: 14.8 µM
CCRF-CEM
  GI50: 15.8 µM
MDA-N
  GI50: 17 µM
[7]
  TGI: 30.2 µM
PC-3
  GI50: 14.5 µM
LOX IMVI
  GI50: 12.6 µM
NCI-H23
  GI50: 16.6 µM
MDA-MB-435
  GI50: 15.8 µM
T47D
  GI50: 16.6 µM
[8]
  GI50: 20.4 µM
SN12C
  GI50: 16.2 µM
SNB-75
  GI50: 13.2 µM
HT-29
  GI50: 16.6 µM
  TGI: 30.1 µM
OVCAR-4
  GI50: 17 µM
[9]
  GI50: 18.2 µM
Leukemia cell
  TGI: 32.2 µM
UACC-62
  GI50: 12.6 µM
NCI-H322M
  GI50: 17.4 µM
DU-145
  GI50: 17.8 µM
ACHN
  GI50: 17.8 µM
M14
  GI50: 17.4 µM
BT-549
  GI50: 15.5 µM
HCT-15
  GI50: 17 µM
  TGI: 30.8 µM
[10]
  TGI: 29.1 µM
COLO 205
  GI50: 15.8 µM
  TGI: 30.2 µM
SNB-19
  GI50: 14.5 µM
MCF7
  GI50: 2.88 µM
[11]
  TGI: 29.9 µM
KM12
  GI50: 22.4 µM
  TGI: 37.1 µM
A549
  GI50: 19.1 µM
UACC-257
  GI50: 16.2 µM
SK-MEL-2
  GI50: 16.2 µM
NCI-H460
  GI50: 15.8 µM

## CC(=O)OC[C@H]1O[C@@H](O[C@@H]2C[C@H]3C(C)(C)[C@H](OC(C)=O)CC[C@]3(C)[C@H]3CC[C@]45C[C@]4(CC[C@H]5[C@@H](C)C[C@@H](O)[C@H](O)C(C)(C)O)[C@@]32C)[C@H](O)[C@@H](O)[C@@H]1O [CUMINGIANOSIDE A]
HCT-116
  TGI: 13.8 µM
[4]
  TGI: 13.3 µM
[5]
  TGI: 13.5 µM
NSCLC
  TGI: 13.1 µM
HCC 2998
  TGI: 12.9 µM
[6]
  TGI: 13.6 µM
SW-620
  TGI: 14.4 µM
[7]
  TGI: 13.9 µM
HT-29
  TGI: 14.3 µM
Leukemia cell
  TGI: 18.5 µM
HCT-15
  TGI: 13.9 µM
[10]
  TGI: 13.7 µM
COLO 205
  TGI: 14 µM
KM12
  TGI: 14.2 µM

## C=C(C=O)[C@H](C)[C@@H]1CC[C@]23C[C@]12CC[C@@H]1[C@@]2(C)CC[C@@H](OC(C)=O)C(C)(C)[C@@H]2C[C@@H](O[C@@H]2O[C@H](COC(C)=O)[C@@H](O)[C@H](O)[C@H]2O)[C@]13C [CUMINDYSODIDE A]
HCT-116
  TGI: 1.4 µM
[4]
  TGI: 1.4 µM
[5]
  TGI: 10.8 µM
NSCLC
  TGI: 12.5 µM
HCC 2998
  TGI: 1.4 µM
[6]
  TGI: 10.4 µM
SW-620
  TGI: 1.4 µM
[7]
  TGI: 5 µM
HT-29
  TGI: 11.9 µM
Leukemia cell
  TGI: 4 µM
HCT-15
  TGI: 7.5 µM
[10]
  TGI: 6.9 µM
COLO 205
  TGI: 1.4 µM
KM12
  TGI: 9.5 µM

## CC(=O)OC[C@H]1O[C@@H](O[C@@H]2C[C@H]3C(C)(C)[C@H](OC(C)=O)CC[C@]3(C)[C@H]3CC[C@]45C[C@]4(CC[C@H]5[C@@H](C)C[C@@H](O)[C@@H]4OC4(C)C)[C@@]32C)[C@H](O)[C@@H](O)[C@@H]1O [CUMINGIANOSIDE E]
HCT-116
  TGI: 3.5 µM
[4]
  TGI: 7.9 µM
[5]
  TGI: 10 µM
NSCLC
  TGI: 14.5 µM
HCC 2998
  TGI: 2.7 µM
[6]
  TGI: 5.9 µM
SW-620
  TGI: 10 µM
[7]
  TGI: 4.2 µM
HT-29
  TGI: 1.7 µM
Leukemia cell
  TGI: 1.8 µM
HCT-15
  TGI: 6 µM
[10]
  TGI: 15.4 µM
COLO 205
  TGI: 1.8 µM
KM12
  TGI: 3.8 µM
